Test results published in US12150998B2, “Bicyclic peptide ligands specific for P-selectin” (BicycleTx Limited, priority 2021, dated 2024).
Starred links: 1 amine or outer side, 2 acyl side, 3 side chain; linkers in the order of their positions; H or OH if unused. Positions of bridges follow the written chain, without caps; N, C: chain ends. Non-standard residues stand in square brackets, D forms with d. Residues, ends and D or L forms follow the SMILES beside them. Chains are numbered I, II in the order given. X4 = O=C(CCOCCN(CCOCCC(=O)NCCOCCOCCOCCOCCOCCOCCOCCOCCOCCOCCn1cc(CCC(=O)[*:2])nn1)CCOCCC(=O)NCCOCCOCCOCCOCCOCCOCCOCCOCCOCCOCCn1cc(CCC(=O)[*:3])nn1)NCCOCCOCCOCCOCCOCCOCCOCCOCCOCCOCCn1cc(CCC(=O)[*:1])nn1; TATA = O=C(CC[*:1])N1CN(C(=O)CC[*:2])CN(C(=O)CC[*:3])C1; X1 = O=C(C[*:1])N1CCN(C(=O)C[*:2])CCN(C(=O)C[*:3])CC1; 1Nal = N[C@@H](Cc1cccc2ccccc12)C(=O)O

Tests used:
human P-Selectin protein = target: T1, human P-Selectin protein (Homo sapiens, UniProt P16109); experiment: SPR binding assay (Biacore); conditions: recombinant biotinylated human P-Selectin, 25° C.; read-out: Affinity KD determined by SPR
T1 sequence (P16109 42-830): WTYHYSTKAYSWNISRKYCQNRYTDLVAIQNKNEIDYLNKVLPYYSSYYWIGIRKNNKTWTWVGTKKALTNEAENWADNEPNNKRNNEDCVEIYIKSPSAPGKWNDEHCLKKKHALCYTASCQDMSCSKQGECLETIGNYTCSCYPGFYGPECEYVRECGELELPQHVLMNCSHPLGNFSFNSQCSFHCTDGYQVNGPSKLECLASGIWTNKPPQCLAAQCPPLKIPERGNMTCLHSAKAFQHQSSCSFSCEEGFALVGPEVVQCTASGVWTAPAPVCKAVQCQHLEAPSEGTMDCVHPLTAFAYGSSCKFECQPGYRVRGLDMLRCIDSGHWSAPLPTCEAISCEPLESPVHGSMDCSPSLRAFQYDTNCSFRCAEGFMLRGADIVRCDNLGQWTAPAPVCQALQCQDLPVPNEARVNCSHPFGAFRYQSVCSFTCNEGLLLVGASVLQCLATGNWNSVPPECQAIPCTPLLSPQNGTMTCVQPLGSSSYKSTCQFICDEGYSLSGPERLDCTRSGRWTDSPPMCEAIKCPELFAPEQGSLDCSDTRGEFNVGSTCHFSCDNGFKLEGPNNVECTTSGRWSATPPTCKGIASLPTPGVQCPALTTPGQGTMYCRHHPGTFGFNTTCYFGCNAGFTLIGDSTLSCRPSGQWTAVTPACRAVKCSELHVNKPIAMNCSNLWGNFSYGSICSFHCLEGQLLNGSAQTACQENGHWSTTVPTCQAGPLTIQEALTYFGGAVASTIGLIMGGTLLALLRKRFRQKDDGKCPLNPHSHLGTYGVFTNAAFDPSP
Description: Biacore experiments were performed to determine ka (M−1s−1), kd (s−1), KD (nM) values of monomeric peptides binding to human Selectin proteins. Recombinant biotinylated human P-Selectin protein was used. For analysis of binding, either a Biacore 3000 or 5200 instrument was used with a CMS sensor chip (GE Healthcare). For sensor chip surface preparation, streptavidin was immobilized on the chip using standard amine-coupling chemistry at 25° C. with HBS-N (10 mM HEPES, 0.15 M NaCl, pH 7.4) as the running buffer. The carboxymethyl dextran surface was activated with a 12 min injection of a 1:1 ratio of 0.4 M 1-ethyl-3-(3-dim ethyl aminopropyl) carbodiimide hydrochloride (EDC)/0.1 M N-hydroxy succinimide (NHS) at a flow rate of 10 μl/min. For capture of streptavidin, protein was diluted to 0.2 mg/ml in 10 mM sodium acetate (pH 4.5) and captured by injecting 70 μl onto the activated chip surface. Residual activated groups were blocked with a 7 min injection of 1 M ethanolamine (pH 8.5). Biotinylated protein stock was diluted 1:100 in HBS-N and captured on one flow cell at 5 μl/min to a level of 1000-1500 RU. Buffer was changed to PBS/0.05% Tween 20 and a dilution series of the peptides was prepared in this buffer with a final DMSO concentration of 0.5%. The top concentration of the analyte varied from 200 nM to 50 μM; depending on predicted affinity of the interaction. In all cases a titration was performed with either seven 2-fold dilutions or five 3-fold dilutions. The SPR analysis was run at 25° C. with a flow rate of 50-80 μl/min with 60 seconds association and a suitable disassociation period (100-900 seconds). Data were corrected for DMSO excluded volume effects. All data were double-referenced for blank injections and reference surface using standard processing procedures and data processing and kinetic fitting were performed using Scrubber software, version 2.0c (BioLogic Software). Data were fitted using mass transport model allowing for mass transport effects where appropriate.

[1] = target: T2, P-Selectin:PSGL1 interaction (Homo sapiens, UniProt P16109); experiment: Receptor ligand inhibition assay (P-Selectin binding to HL-60 cells); type: cell-based; conditions: geomean of n=3; for IC50: 5 nM P-Selectin, HL-60 cells, read-out: IC50; for Inhibition at top concentration: 100−% response at top concentration
T2 construct: host or cells: HL-60 cells (ATCC, CCL-240) supply the PSGL-1 partner endogenously
T2 sequence (P16109 42-771 limits assumed): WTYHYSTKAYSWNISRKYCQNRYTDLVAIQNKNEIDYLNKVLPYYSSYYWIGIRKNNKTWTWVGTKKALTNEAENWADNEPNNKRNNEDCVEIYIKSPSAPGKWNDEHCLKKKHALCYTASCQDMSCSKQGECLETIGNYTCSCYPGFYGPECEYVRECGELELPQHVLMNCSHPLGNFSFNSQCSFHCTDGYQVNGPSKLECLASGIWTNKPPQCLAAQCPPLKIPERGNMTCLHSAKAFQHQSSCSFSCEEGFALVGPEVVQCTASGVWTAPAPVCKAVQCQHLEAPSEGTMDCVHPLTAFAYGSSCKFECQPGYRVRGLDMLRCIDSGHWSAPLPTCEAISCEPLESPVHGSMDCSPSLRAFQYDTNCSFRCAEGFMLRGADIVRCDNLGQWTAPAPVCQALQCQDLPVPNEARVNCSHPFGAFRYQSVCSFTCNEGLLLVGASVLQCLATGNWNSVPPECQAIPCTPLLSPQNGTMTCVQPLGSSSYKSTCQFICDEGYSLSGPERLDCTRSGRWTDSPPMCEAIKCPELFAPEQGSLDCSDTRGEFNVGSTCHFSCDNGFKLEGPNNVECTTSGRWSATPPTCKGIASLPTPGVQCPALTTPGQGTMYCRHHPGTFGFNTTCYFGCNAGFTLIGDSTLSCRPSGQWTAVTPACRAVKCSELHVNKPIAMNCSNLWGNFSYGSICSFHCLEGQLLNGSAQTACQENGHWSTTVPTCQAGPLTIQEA
Description: Bicycle test samples, SelG1 (Crizanlizumab) were serially diluted maintaining 0.5% DMSO in assay buffer (25 mM HEPES, 121 mM NaCl, 5.4 mM KCl, 0.8 mM MgCl2, 1.8 mM CaCl2), 6 mM […], 5.5 mM glucose, 1% BSA, pH7.4) and transferred to 384 well clear bottom plates (Corning, 3712) with a final volume of 6 μL. […], of P-Selectin in imaging buffer (25 mM HEPES, 121 mM NaCl, 5.4 mM KCl, 0.8 mM MgCl2, 1.8 mM CaCl2), 6 mM […], 5.5 mM glucose, pH7.4) was added to give a 5 nM final concentration and incubated at room temperature for 15 minutes. HL-60 cells (ATCC, CCL-240) mixed with 1 μg/mL far red labelled wheat germ agglutinin (WGA, ThermoFisher W21404) and 1 μg/mL AlexaFluor 488-streptavidin (Invitrogen S11223) were added to the plate and incubated for 2 hours at room temperature in the absence of light. Staining and antibody binding were quantified by simultaneously scanning the microplates with 488 nm and 640 nm lasers on a mirrorball microplate cytometer, AF488 on FL2 triggering on AF647-WGA on FL4. Data was analysed in Dotmatics, using a four parameter logistic fit to generate IC50 values and % response. Percent inhibition was calculated using 100−% response at top concentration.

| Kd (human P-Selectin protein) | IC50 [1] | Inhibition at top concentration [1] | Compound |
| --- | --- | --- | --- |
| 239 nM | – | – | I: Ac-ACYMEWCDVTDYGCK-NH2 / II: Ac-ACYMEWCDVTDYGCK-NH2 / III: Ac-ACYMEWCDVTDYGCK-NH2 (linker I:2-I:7-I:14, II:2-II:7-II:14, III:2-III:7-III:14 via TATA; linker I:15-II:15-III:15 via X4) [BCY5460] |
| 400 nM | – | – | CSCC[C@@H]1NC(=O)[C@H](Cc2ccc(O)cc2)NC(=O)[C@@H](NC(=O)[C@H](C)NC(=O)CCc2cn(CCOCCOCCOCCOCCOCCOCCOCCOCCOCCOCCNC(=O)CCOCCN(CCOCCC(=O)NCCOCCOCCOCCOCCOCCOCCOCCOCCOCCOCCn3cc(CCC(=O)N[C@@H](C)C(=O)N[C@H]4CSCCC(=O)N5CN6CN(C5)C(=O)CCSC[C@H](NC(=O)[C@H](Cc5c[nH]c7ccccc57)NC(=O)[C@H](CCC(=O)O)NC(=O)[C@H](CCSC)NC(=O)[C@H](Cc5ccc(O)cc5)NC4=O)C(=O)N[C@@H](CC(=O)O)C(=O)N[C@@H](C(C)C)C(=O)N[C@@H]([C@@H](C)O)C(=O)N[C@@H](CC(=O)O)C(=O)N[C@@H](Cc4ccc(O)cc4)C(=O)NCC(=O)N[C@H](C(=O)N[C@@H](C)C(N)=O)CSCCC6=O)nn3)CCOCCC(=O)NCCOCCOCCOCCOCCOCCOCCOCCOCCOCCOCCn3cc(CCC(=O)N[C@@H](C)C(=O)N[C@H]4CSCCC(=O)N5CN6CN(C5)C(=O)CCSC[C@H](NC(=O)[C@H](Cc5c[nH]c7ccccc57)NC(=O)[C@H](CCC(=O)O)NC(=O)[C@H](CCSC)NC(=O)[C@H](Cc5ccc(O)cc5)NC4=O)C(=O)N[C@@H](CC(=O)O)C(=O)N[C@@H](C(C)C)C(=O)N[C@@H]([C@@H](C)O)C(=O)N[C@@H](CC(=O)O)C(=O)N[C@@H](Cc4ccc(O)cc4)C(=O)NCC(=O)N[C@H](C(=O)N[C@@H](C)C(N)=O)CSCCC6=O)nn3)nn2)CSCCC(=O)N2CN3CN(C2)C(=O)CCSC[C@H](NC(=O)[C@H](Cc2c[nH]c4ccccc24)NC(=O)[C@H](CCC(=O)O)NC1=O)C(=O)N[C@@H](CC(=O)O)C(=O)N[C@@H](C(C)C)C(=O)N[C@@H]([C@@H](C)O)C(=O)N[C@@H](CC(=O)O)C(=O)N[C@@H](Cc1ccc(O)cc1)C(=O)NCC(=O)N[C@H](C(=O)N[C@@H](C)C(N)=O)CSCCC3=O [BCY5458] |
| – | > 117 nM | 37% | CC(C)C[C@@H]1NC(=O)[C@H](CO)NC(=O)[C@@H]2CCCN2C(=O)[C@H](C(C)C)NC(=O)[C@H](CC(=O)O)NC(=O)[C@@H]2CSCC(=O)N3CCN(CCN(CC3)C(=O)CSC[C@@H](C(=O)N[C@@H](C)C(N)=O)NC(=O)[C@@H]3CCCN3C1=O)C(=O)CSC[C@H](NC(=O)[C@H](C)N)C(=O)N[C@@H](CC(=O)O)C(=O)N[C@@H](C)C(=O)N[C@@H](CC(=O)O)C(=O)N[C@@H](Cc1c[nH]c3ccccc13)C(=O)N2 [BCY11648, A-(SEQ ID NO: 3)-A] (H-ACDADWCDVPSLPCA-NH2; linker 2-7-14 via X1; N-terminus and C-terminus assumed) |
| – | > 10900 nM | 20% | CSCC[C@@H]1NC(=O)[C@H](Cc2ccc(O)cc2)NC(=O)[C@@H](NC(C)=O)CSCCC(=O)N2CN3CN(C2)C(=O)CCSC[C@H](NC(=O)[C@H](Cc2c[nH]c4ccccc24)NC(=O)[C@H](CCC(=O)O)NC1=O)C(=O)N[C@@H](CC(=O)O)C(=O)N[C@@H](C(C)C)C(=O)N[C@@H]([C@@H](C)O)C(=O)N[C@@H](CC(=O)O)C(=O)N[C@@H](Cc1ccc(O)cc1)C(=O)NCC(=O)N[C@H](C(N)=O)CSCCC3=O [BCY9717, Ac-(SEQ ID NO: 6)] (Ac-CYMEWCDVTDYGC-NH2; linker 1-6-13 via TATA; C-terminus assumed) |
| – | > 3540 nM | 24% | CSCC[C@@H]1NC(=O)[C@H](Cc2ccc(O)cc2)NC(=O)[C@@H](NC(=O)[C@H](C)NC(C)=O)CSCCC(=O)N2CN3CN(C2)C(=O)CCSC[C@H](NC(=O)[C@H](Cc2cccc4ccccc24)NC(=O)[C@H](CCC(=O)O)NC1=O)C(=O)N[C@@H](CC(=O)O)C(=O)N[C@@H](C(C)C)C(=O)N[C@@H]([C@@H](C)O)C(=O)N[C@@H](CC(=O)O)C(=O)N[C@@H](Cc1ccc(O)cc1)C(=O)NCC(=O)N[C@H](C(=O)N[C@@H](C)C(N)=O)CSCCC3=O [BCY11279, Ac-A-(SEQ ID NO: 4)-A] (Ac-ACYME[1Nal]CDVTDYGCA-NH2; linker 2-7-14 via TATA) |
